Data as given in the supplement of paper PMC10307832.

Legend:
Assay in all cases: relative viability (nuclei count vs DMSO), 5 days (fraction); higher = more cells survive
201T = tested on: 201T
How it was run: (§1)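 Dosing by pin tool came one day after lung cancer cell lines were seeded in 1536-well plates, using either one drug or a fixed anchor-drug dose plus five library-drug doses (not always all listed) in √10 steps. After 5 days, nuclei were counted on 4× images. Relative viability is treated-well nuclei count divided by vehicle-well nuclei count, and values are medians of duplicate plates.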

ABC-1 = tested on: ABC-1
How it was run: as §1

HCC-366 = tested on: HCC-366
How it was run: as §1

HCC-44 = tested on: HCC-44
How it was run: as §1

HCC-78 = tested on: HCC-78
How it was run: as §1

IA-LM = tested on: IA-LM
How it was run: as §1

LK-2 = tested on: LK-2
How it was run: as §1

LOU-NH91 = tested on: LOU-NH91
How it was run: as §1

NCI-H1437 = tested on: NCI-H1437
How it was run: as §1

NCI-H1648 = tested on: NCI-H1648
How it was run: as §1

NCI-H1651 = tested on: NCI-H1651
How it was run: as §1

NCI-H1734 = tested on: NCI-H1734
How it was run: as §1

NCI-H1944 = tested on: NCI-H1944
How it was run: as §1

NCI-H2023 = tested on: NCI-H2023
How it was run: as §1

NCI-H2085 = tested on: NCI-H2085
How it was run: as §1

NCI-H2087 = tested on: NCI-H2087
How it was run: as §1

NCI-H2170 = tested on: NCI-H2170
How it was run: as §1

NCI-H2228 = tested on: NCI-H2228
How it was run: as §1

NCI-H322M = tested on: NCI-H322M
How it was run: as §1

NCI-H596 = tested on: NCI-H596
How it was run: as §1

NCI-H647 = tested on: NCI-H647
How it was run: as §1

PC-14 = tested on: PC-14
How it was run: as §1

PC-3 [JPC-3] = tested on: PC-3 [JPC-3]
How it was run: as §1

SK-LU-1 = tested on: SK-LU-1
How it was run: as §1

SMILES: Nc1cccc2c1CN(C1CCC(=O)NC1=O)C2=O (stereo not drawn) [Lenalidomide] + O=C(CCCCCCC(=O)Nc1ccccc1)NO [Vorinostat] (partner 1 µM)
- relative viability (201T; first compound 0.253 µM): 0.963
- relative viability (201T; first compound 0.8 µM): 0.791
- relative viability (201T; first compound 2.53 µM): 0.955
- relative viability (201T; first compound 8 µM): 0.859
- relative viability (ABC-1; first compound 0.253 µM): 1.31
- relative viability (ABC-1; first compound 0.8 µM): 1.1
- relative viability (ABC-1; first compound 2.53 µM): 1.36
- relative viability (ABC-1; first compound 8 µM): 1.46
- relative viability (HCC-366; first compound 0.253 µM): 0.335
- relative viability (HCC-366; first compound 0.8 µM): 0.102
- relative viability (HCC-366; first compound 2.53 µM): 0.479
- relative viability (HCC-366; first compound 8 µM): 0.265
- relative viability (HCC-44; first compound 0.253 µM): 1.05
- relative viability (HCC-44; first compound 0.8 µM): 0.926
- relative viability (HCC-44; first compound 2.53 µM): 1.04
- relative viability (HCC-44; first compound 8 µM): 1.08
- relative viability (HCC-78; first compound 0.253 µM): 0.447
- relative viability (HCC-78; first compound 0.8 µM): 0.456
- relative viability (HCC-78; first compound 2.53 µM): 0.474
- relative viability (HCC-78; first compound 8 µM): 0.486
- relative viability (IA-LM; first compound 0.253 µM): 0.852
- relative viability (IA-LM; first compound 0.8 µM): 0.969
- relative viability (IA-LM; first compound 2.53 µM): 1.22
- relative viability (IA-LM; first compound 8 µM): 0.814
- relative viability (LK-2; first compound 0.253 µM): 0.339
- relative viability (LK-2; first compound 0.8 µM): 0.252
- relative viability (LK-2; first compound 2.53 µM): 0.353
- relative viability (LK-2; first compound 8 µM): 0.189
- relative viability (LOU-NH91; first compound 0.253 µM): 0.928
- relative viability (LOU-NH91; first compound 0.8 µM): 0.753
- relative viability (LOU-NH91; first compound 2.53 µM): 0.98
- relative viability (LOU-NH91; first compound 8 µM): 0.817
- relative viability (NCI-H1437; first compound 0.253 µM): 0.825
- relative viability (NCI-H1437; first compound 0.8 µM): 0.85
- relative viability (NCI-H1437; first compound 2.53 µM): 0.934
- relative viability (NCI-H1437; first compound 8 µM): 0.843
- relative viability (NCI-H1648; first compound 0.253 µM): 0.513
- relative viability (NCI-H1648; first compound 2.53 µM): 0.885
- relative viability (NCI-H1648; first compound 8 µM): 0.392
- relative viability (NCI-H1651; first compound 0.253 µM): 0.624
- relative viability (NCI-H1651; first compound 0.8 µM): 0.471
- relative viability (NCI-H1651; first compound 2.53 µM): 0.589
- relative viability (NCI-H1651; first compound 8 µM): 0.579
- relative viability (NCI-H1734; first compound 0.253 µM): 0.855
- relative viability (NCI-H1734; first compound 0.8 µM): 0.759
- relative viability (NCI-H1734; first compound 2.53 µM): 0.871
- relative viability (NCI-H1734; first compound 8 µM): 0.735
- relative viability (NCI-H1944; first compound 0.253 µM): 0.543
- relative viability (NCI-H1944; first compound 2.53 µM): 0.58
- relative viability (NCI-H1944; first compound 8 µM): 0.44
- relative viability (NCI-H2023; first compound 0.253 µM): 0.637
- relative viability (NCI-H2023; first compound 0.8 µM): 0.732
- relative viability (NCI-H2023; first compound 2.53 µM): 0.652
- relative viability (NCI-H2023; first compound 8 µM): 0.468
- relative viability (NCI-H2085; first compound 0.253 µM): 0.826
- relative viability (NCI-H2085; first compound 0.8 µM): 0.691
- relative viability (NCI-H2085; first compound 2.53 µM): 0.799
- relative viability (NCI-H2085; first compound 8 µM): 0.624
- relative viability (NCI-H2087; first compound 0.253 µM): 0.809
- relative viability (NCI-H2087; first compound 2.53 µM): 0.84
- relative viability (NCI-H2087; first compound 8 µM): 0.56
- relative viability (NCI-H2170; first compound 0.253 µM): 0.883
- relative viability (NCI-H2170; first compound 0.8 µM): 0.649
- relative viability (NCI-H2170; first compound 2.53 µM): 0.889
- relative viability (NCI-H2170; first compound 8 µM): 0.626
- relative viability (NCI-H2228; first compound 0.253 µM): 0.451
- relative viability (NCI-H2228; first compound 0.8 µM): 0.505
- relative viability (NCI-H2228; first compound 2.53 µM): 1.09
- relative viability (NCI-H2228; first compound 8 µM): 1.12
- relative viability (NCI-H322M; first compound 0.253 µM): 0.934
- relative viability (NCI-H322M; first compound 0.8 µM): 0.907
- relative viability (NCI-H322M; first compound 2.53 µM): 0.962
- relative viability (NCI-H322M; first compound 8 µM): 0.986
- relative viability (NCI-H596; first compound 0.253 µM): 0.584
- relative viability (NCI-H596; first compound 0.8 µM): 0.464
- relative viability (NCI-H596; first compound 2.53 µM): 0.689
- relative viability (NCI-H596; first compound 8 µM): 0.52
- relative viability (NCI-H647; first compound 0.253 µM): 0.415
- relative viability (NCI-H647; first compound 0.8 µM): 0.68
- relative viability (NCI-H647; first compound 2.53 µM): 0.525
- relative viability (NCI-H647; first compound 8 µM): 0.653
- relative viability (PC-14; first compound 0.253 µM): 0.745
- relative viability (PC-14; first compound 0.8 µM): 0.713
- relative viability (PC-14; first compound 2.53 µM): 0.826
- relative viability (PC-14; first compound 8 µM): 0.922
- relative viability (PC-3 [JPC-3]; first compound 0.253 µM): 1.02
- relative viability (PC-3 [JPC-3]; first compound 0.8 µM): 0.721
- relative viability (PC-3 [JPC-3]; first compound 2.53 µM): 0.903
- relative viability (PC-3 [JPC-3]; first compound 8 µM): 0.72
- relative viability (SK-LU-1; first compound 0.253 µM): 0.763
- relative viability (SK-LU-1; first compound 0.8 µM): 0.877
- relative viability (SK-LU-1; first compound 2.53 µM): 0.909
- relative viability (SK-LU-1; first compound 8 µM): 0.759
